In patent publication US12258328B2, “6-membered heteroaryl-containing aminopyridine compounds as EGFR inhibitors” (YUHAN CORPORATION, priority 2021, dated 2025):
Read-outs that look alike come from different tables or passages of the source. Each block holds one compound with its values, some of them ahead of it.

Legend:
EGFR L858R/T790M/C797S = EGFR L858R/T790M/C797S (Homo sapiens, UniProt P00533, C797S/L858R/T790M); experiment: Biochemical EGFR kinase assay (Lance Ultra TR-FRET), triple mutant L858R/T790M/C797S
Sequence of EGFR L858R/T790M/C797S (P00533 25-1210 T790M/C797S/L858R): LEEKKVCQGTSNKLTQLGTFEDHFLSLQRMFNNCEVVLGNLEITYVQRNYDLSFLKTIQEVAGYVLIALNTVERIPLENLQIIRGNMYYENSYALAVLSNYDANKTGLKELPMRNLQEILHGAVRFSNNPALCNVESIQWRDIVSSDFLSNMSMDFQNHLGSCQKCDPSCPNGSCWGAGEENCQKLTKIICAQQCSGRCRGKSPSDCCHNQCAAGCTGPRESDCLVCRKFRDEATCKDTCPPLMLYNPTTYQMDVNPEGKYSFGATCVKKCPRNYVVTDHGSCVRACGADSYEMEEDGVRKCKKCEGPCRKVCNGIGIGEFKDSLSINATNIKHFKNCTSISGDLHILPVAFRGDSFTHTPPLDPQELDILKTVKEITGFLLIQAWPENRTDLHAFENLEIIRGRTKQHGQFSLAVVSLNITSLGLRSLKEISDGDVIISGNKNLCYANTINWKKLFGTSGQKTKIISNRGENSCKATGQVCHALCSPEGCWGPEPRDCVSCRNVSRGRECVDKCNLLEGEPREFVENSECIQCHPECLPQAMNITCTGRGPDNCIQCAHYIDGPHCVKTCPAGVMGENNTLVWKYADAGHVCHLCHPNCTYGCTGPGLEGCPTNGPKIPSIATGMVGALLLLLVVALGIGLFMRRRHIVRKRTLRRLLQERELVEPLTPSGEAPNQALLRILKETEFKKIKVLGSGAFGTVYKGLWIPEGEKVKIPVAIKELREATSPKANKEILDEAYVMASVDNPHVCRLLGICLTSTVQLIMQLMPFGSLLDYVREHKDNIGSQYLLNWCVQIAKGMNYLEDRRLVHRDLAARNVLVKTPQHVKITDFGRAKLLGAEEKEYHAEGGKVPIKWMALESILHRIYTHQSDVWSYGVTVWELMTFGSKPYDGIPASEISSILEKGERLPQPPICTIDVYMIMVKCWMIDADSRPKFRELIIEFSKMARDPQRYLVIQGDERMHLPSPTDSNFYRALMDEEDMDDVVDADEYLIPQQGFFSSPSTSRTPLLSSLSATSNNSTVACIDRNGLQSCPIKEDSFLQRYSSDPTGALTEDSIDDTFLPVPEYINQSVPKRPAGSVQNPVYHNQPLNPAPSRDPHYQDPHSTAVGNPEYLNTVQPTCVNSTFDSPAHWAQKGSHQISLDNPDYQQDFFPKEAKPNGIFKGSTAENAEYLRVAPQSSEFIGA
Protocol: (§1) Biochemical EGFR kinase assays were conducted using Lance Ultra time-resolved fluorescence resonance energy transfer (TR-FRET) technology from Perkin-Elmer. Compounds of the invention were initially diluted to 20 mM in 100% DMSO for storage and made into kinase buffer solution to create a compound concentration ranging from 0.003 μM and 10 μM.
(§2) Each kinase reactions were incubated at room temperature for 1 hour and then stopped by the addition of 4 μL of stop solution (10 mM EDTA). The specific Europium-labeled-anti-phosphopeptide antibody (PerkinElmer, AD0069) diluted in LANCE detection buffer was then added to a final concentration of 2 nM. After 60 minutes incubation at room temperature the LANCE signal was measured on an EnVision Multilabel Reader (Perkin-Elmer). Excitation wavelength was set at 320 nm and emission monitored at 615 nm (donor) and 665 nm (acceptor). The IC50 values were determined using GraphPad prism software (GraphPad Software, Inc., San Diego, CA, USA).

EGFR L858R/C797S = EGFR L858R/C797S (Homo sapiens, UniProt P00533, C797S/L858R); experiment: Biochemical EGFR kinase assay (Lance Ultra TR-FRET), double mutant L858R/C797S
Sequence of EGFR L858R/C797S (P00533 25-1210 C797S/L858R): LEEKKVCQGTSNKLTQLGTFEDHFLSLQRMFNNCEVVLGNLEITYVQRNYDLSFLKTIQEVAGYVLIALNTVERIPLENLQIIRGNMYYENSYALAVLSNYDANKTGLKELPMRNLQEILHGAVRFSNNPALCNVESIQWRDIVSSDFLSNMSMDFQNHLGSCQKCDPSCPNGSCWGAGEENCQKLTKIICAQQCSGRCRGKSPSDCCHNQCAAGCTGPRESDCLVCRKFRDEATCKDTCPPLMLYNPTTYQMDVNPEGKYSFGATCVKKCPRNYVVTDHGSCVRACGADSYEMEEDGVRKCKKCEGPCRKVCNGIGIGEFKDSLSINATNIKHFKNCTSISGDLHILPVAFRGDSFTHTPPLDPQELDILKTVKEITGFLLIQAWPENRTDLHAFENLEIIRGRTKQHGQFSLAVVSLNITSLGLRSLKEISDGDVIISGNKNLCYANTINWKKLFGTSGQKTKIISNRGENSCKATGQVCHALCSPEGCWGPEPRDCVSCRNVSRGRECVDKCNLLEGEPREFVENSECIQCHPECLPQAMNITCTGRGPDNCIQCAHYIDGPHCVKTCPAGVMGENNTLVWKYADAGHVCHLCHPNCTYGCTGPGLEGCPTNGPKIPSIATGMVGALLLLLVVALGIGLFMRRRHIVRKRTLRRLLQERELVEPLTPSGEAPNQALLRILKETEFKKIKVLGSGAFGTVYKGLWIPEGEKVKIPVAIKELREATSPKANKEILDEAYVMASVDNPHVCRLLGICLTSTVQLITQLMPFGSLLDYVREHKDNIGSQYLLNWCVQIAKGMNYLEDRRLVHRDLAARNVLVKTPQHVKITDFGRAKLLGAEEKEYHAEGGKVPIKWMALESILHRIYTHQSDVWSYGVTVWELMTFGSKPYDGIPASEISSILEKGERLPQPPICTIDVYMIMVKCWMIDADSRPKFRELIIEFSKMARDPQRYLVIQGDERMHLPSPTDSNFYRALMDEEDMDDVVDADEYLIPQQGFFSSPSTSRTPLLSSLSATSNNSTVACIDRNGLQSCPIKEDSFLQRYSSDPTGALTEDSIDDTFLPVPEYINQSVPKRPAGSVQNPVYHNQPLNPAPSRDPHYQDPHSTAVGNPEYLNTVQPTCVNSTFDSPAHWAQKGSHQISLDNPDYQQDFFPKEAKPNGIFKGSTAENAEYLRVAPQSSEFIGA
Protocol: as §1, §2

EGFR wildtype = EGFR wildtype (Homo sapiens, UniProt P00533); experiment: Biochemical EGFR kinase assay (Lance Ultra TR-FRET), wildtype
Protocol: as §1, §2

EGFR del19/T790M/C797S = EGFR del19/T790M/C797S (Homo sapiens, UniProt P00533, C797S/DEL746-750/T790M); experiment: Biochemical EGFR kinase assay (Lance Ultra TR-FRET), triple mutant del19/T790M/C797S
Sequence of EGFR del19/T790M/C797S (P00533 with tags, fused parts or gaps DEL746-750/T790M/C797S): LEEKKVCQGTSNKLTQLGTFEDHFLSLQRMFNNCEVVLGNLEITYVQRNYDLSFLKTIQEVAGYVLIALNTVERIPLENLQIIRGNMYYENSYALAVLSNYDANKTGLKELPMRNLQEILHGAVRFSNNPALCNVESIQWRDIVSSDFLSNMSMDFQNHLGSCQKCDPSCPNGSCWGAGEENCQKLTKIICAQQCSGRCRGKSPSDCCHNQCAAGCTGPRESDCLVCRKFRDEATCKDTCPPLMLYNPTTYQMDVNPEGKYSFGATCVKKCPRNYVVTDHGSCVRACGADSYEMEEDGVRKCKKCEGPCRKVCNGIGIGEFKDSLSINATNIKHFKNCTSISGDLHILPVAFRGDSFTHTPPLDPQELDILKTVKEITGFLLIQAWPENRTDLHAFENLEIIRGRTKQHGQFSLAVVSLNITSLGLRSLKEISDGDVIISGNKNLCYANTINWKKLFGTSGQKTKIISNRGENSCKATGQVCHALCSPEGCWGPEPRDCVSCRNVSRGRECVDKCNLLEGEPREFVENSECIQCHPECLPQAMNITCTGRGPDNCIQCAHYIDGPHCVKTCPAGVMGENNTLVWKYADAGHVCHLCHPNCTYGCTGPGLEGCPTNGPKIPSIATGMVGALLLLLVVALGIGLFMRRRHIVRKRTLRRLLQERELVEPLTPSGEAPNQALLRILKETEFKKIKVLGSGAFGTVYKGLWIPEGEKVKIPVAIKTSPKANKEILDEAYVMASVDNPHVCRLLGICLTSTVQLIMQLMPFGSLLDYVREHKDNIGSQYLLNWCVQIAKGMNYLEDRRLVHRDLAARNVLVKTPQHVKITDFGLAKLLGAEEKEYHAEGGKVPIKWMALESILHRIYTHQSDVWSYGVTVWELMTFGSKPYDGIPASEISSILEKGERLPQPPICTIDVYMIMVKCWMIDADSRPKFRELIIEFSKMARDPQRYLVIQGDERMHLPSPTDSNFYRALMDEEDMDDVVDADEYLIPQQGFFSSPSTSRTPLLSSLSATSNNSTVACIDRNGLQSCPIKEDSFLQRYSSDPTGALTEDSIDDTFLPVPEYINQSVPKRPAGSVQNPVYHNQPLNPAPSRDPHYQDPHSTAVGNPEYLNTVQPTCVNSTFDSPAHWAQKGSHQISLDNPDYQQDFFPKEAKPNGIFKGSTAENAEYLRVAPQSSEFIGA
Protocol: as §1, §2

EGFR del19/C797S = EGFR del19/C797S (Homo sapiens, UniProt P00533, C797S/DEL746-750); experiment: Biochemical EGFR kinase assay (Lance Ultra TR-FRET), double mutant del19/C797S
Sequence of EGFR del19/C797S (P00533 with tags, fused parts or gaps DEL746-750/C797S): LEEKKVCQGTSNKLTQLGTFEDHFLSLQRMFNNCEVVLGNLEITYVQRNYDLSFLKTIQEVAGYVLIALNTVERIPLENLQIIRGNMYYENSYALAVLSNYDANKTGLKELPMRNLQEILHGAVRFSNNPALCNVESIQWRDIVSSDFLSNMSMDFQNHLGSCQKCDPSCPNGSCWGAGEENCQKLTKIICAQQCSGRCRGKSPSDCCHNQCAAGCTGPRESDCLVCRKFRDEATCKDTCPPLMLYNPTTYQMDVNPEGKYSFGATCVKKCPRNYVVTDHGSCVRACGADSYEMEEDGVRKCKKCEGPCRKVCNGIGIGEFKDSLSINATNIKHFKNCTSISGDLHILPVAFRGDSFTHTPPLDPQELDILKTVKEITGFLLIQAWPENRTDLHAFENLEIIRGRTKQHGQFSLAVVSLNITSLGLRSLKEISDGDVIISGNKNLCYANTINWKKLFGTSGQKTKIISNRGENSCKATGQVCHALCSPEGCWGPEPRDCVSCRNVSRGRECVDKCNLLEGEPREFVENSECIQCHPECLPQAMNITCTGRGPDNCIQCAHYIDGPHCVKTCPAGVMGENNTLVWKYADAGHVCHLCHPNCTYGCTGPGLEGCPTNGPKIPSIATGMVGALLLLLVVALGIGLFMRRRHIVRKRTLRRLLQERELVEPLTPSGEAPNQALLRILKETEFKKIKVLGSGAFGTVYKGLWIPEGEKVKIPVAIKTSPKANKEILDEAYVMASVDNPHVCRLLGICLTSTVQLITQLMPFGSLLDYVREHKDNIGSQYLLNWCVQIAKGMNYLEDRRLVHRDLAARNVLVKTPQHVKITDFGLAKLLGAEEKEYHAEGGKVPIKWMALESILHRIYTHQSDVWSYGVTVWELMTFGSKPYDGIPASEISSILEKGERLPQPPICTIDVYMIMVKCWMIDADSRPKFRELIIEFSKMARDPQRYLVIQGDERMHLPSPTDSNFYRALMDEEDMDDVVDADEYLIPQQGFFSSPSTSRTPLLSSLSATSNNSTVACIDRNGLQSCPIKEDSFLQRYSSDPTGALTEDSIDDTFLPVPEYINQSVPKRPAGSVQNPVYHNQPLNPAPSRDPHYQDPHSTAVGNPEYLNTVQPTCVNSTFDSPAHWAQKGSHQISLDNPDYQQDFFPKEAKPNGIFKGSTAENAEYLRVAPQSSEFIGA
Protocol: as §1, §2

[1] = Km ATP, read-out: IC50 L858R/T790M/C797S (nM) Km ATP
[2] = Km ATP, read-out: IC50 L858R/C797S (nM) Km ATP
[3] = Km ATP, read-out: IC50 WT (nM) Km ATP
[4] = Km ATP, read-out: IC50 del19/T790M/C797S (nM) Km ATP
[5] = ATP at Km, read-out: IC50 L858R/T790M/C797S, Km ATP
[6] = ATP at Km, read-out: IC50 L858R/C797S, Km ATP
[7] = ATP at Km, read-out: IC50 WT, Km ATP
[8] = ATP at Km, read-out: IC50 del19/T790M/C797S, Km ATP
[9] = IC50 del19/T790M/C797S, 100 μM ATP
[10] = Km ATP, read-out: IC50 del19/C797S (nM) Km ATP
[11] = ATP at Km, read-out: IC50 del19/C797S, Km ATP

Compound: CN1CCC(Oc2cnc(-c3cnc(Nc4ccnc(-c5cnn(S(=O)(=O)C6CC6)c5)n4)cc3N[C@H]3CC[C@@](C)(O)CC3)cn2)CC1 [Example 145, (1s,4s)-4-((2-((2-(1-(Cyclopropylsulfonyl)-1H-pyrazol-4-yl)pyrimidin-4-yl)amino)-5-(5-((1-methylpiperidin-4-yl)oxy)pyrazin-2-yl)pyridin-4-yl)amino)-1-methylcyclohexan-1-ol]
IC50 (EGFR L858R/T790M/C797S; [1]): 0.03 nM
IC50 (EGFR L858R/C797S; [2]): 0.1 nM
IC50 (EGFR del19/T790M/C797S; [4]): 0.1 nM
IC50 (EGFR del19/C797S; [10]): 0.3 nM

Compound: CN1CCC(Oc2ccc(-c3cnc(Nc4nc(-c5cnn(S(=O)(=O)C6CC6)c5)ncc4F)cc3N[C@H]3CC[C@@](C)(O)CC3)nc2)CC1 [Example 300, (1s,4s)-4-((6′-((2-(1-(Cyclopropylsulfonyl)-1H-pyrazol-4-yl)-5-fluoropyrimidin-4-yl)amino)-5-((1-methylpiperidin-4-yl)oxy)-[2,3′-bipyridin]-4′-yl)amino)-1-methylcyclohexan-1-ol]
IC50 (EGFR L858R/T790M/C797S; [5]): 0.1 nM
IC50 (EGFR L858R/C797S; [6]): 0.2 nM
IC50 (EGFR del19/T790M/C797S; [8]): 0.3 nM
IC50 (EGFR del19/C797S; [11]): 0.4 nM

Compound: C[C@]1(O)CC[C@@H](Nc2cc(Nc3ccnc(-c4cnn(S(=O)(=O)C5CC5)c4)n3)ncc2-c2cnc(OC(F)F)cn2)CC1 [Example 128, (1s,4s)-4-((2-((2-(1-(Cyclopropylsulfonyl)-1H-pyrazol-4-yl)pyrimidin-4-yl)amino)-5-(5-(difluoromethoxy)pyrazin-2-yl)pyridin-4-yl)amino)-1-methylcyclohexan-1-ol]
IC50 (EGFR L858R/T790M/C797S; [1]): 0.5 nM
IC50 (EGFR L858R/C797S; [2]): 95.8 nM
IC50 (EGFR wildtype; [3]): > 10000 nM
IC50 (EGFR del19/C797S; [10]): 41.2 nM

Compound: C[C@]1(O)CC[C@@H](Nc2cc(Nc3ccnc(-c4cnn(S(=O)(=O)C5CC5)c4)n3)ncc2-c2ccc(S(=O)(=O)N3CCOCC3)cn2)CC1 [Example 182, (1s,4s)-4-((6′-((2-(1-(Cyclopropylsulfonyl)-1H-pyrazol-4-yl)pyrimidin-4-yl)amino)-5-(morpholinosulfonyl)-[2,3′-bipyridin]-4′-yl)amino)-1-methylcyclohexan-1-ol]
IC50 (EGFR L858R/C797S; [6]): 0.9 nM
IC50 (EGFR L858R/C797S; IC50 L858R/C797S, 100 μM ATP): 3.5 nM
IC50 (EGFR wildtype; IC50 WT, 100 μM ATP): > 10000 nM
IC50 (EGFR del19/T790M/C797S; [8]): 2.9 nM
IC50 (EGFR del19/T790M/C797S; [9]): 6.4 nM
IC50 (EGFR del19/C797S; IC50 del19/C797S, 100 μM ATP): 3.7 nM

The remaining lines, values ahead:

IC50 (EGFR L858R/T790M/C797S; IC50 L858R/T790M/C797S (nM) 100 μM ATP, 100 μM ATP): 0.5 nM
IC50 (EGFR L858R/T790M/C797S; [1]): 0.1 nM
IC50 (EGFR L858R/C797S; IC50 L858R/C797S (nM) 100 μM ATP, 100 μM ATP): 1 nM
IC50 (EGFR L858R/C797S; [2]): 1 nM
IC50 (EGFR wildtype; IC50 WT (nM) 100 μM ATP, 100 μM ATP): > 10000 nM
IC50 (EGFR wildtype; [3]): 6.9 nM
IC50 (EGFR del19/T790M/C797S; IC50 del19/T790M/C797S (nM) 100 μM ATP, 100 μM ATP): 0.4 nM
IC50 (EGFR del19/T790M/C797S; [4]): 0.4 nM
Compound: COc1ccc(-c2cnc(Nc3ccnc(-c4cnn(S(=O)(=O)C5CC5)c4)n3)cc2N[C@H]2CC[C@@](C)(O)CC2)nn1 [Example 53, (1s,4s)-4-((2-((2-(1-(Cyclopropylsulfonyl)-1H-pyrazol-4-yl)pyrimidin-4-yl)amino)-5-(6-methoxypyridazin-3-yl)pyridin-4-yl)amino)-1-methylcyclohexan-1-ol]

IC50 (EGFR L858R/T790M/C797S; [5]): 0.3 nM
IC50 (EGFR L858R/T790M/C797S; IC50 L858R/T790M/C797S, 100 μM ATP): 0.8 nM
IC50 (EGFR L858R/C797S; [6]): 1 nM
IC50 (EGFR L858R/C797S; IC50 L858R/C797S, 100 μM ATP): 14 nM
IC50 (EGFR wildtype; [7]): 3.8 nM
IC50 (EGFR wildtype; IC50 WT, 100 μM ATP): 1790 nM
IC50 (EGFR del19/T790M/C797S; [8]): 1.3 nM
IC50 (EGFR del19/T790M/C797S; [9]): 1.6 nM
Compound: CC(C)(O)[C@H]1CC[C@@H](Nc2cc(Nc3ccnc(-c4cnn(S(=O)(=O)C5CC5)c4)n3)ncc2-c2ccc(OCCO)cn2)CC1 [Example 207, 2-((1s,4s)-4-((6′-((2-(1-(Cyclopropylsulfonyl)-1H-pyrazol-4-yl)pyrimidin-4-yl)amino)-5-(2-hydroxyethoxy)-[2,3′-bipyridin]-4′-yl)amino)cyclohexyl)propan-2-ol]

IC50 (EGFR L858R/C797S; [6]): 26.5 nM
IC50 (EGFR wildtype; [7]): 44.7 nM
IC50 (EGFR del19/T790M/C797S; [8]): 10.4 nM
IC50 (EGFR del19/C797S; [11]): 49.2 nM
Compound: CC(C)Nc1cc(Nc2ccnc(-c3cnn(S(=O)(=O)C4CC4)c3)n2)ncc1-c1ccc(C(C)(O)C(F)(F)F)cn1 (centres unmarked) [Example 295, 2-(6′-((2-(1-(Cyclopropylsulfonyl)-1H-pyrazol-4-yl)pyrimidin-4-yl)amino)-4′-(isopropylamino)-[2,3′-bipyridin]-5-yl)-1,1,1-trifluoropropan-2-ol]
